Assay results taken from US8329706B2, “Oxazolidinone derivatives” (Actelion Pharmaceuticals Ltd., priority 2009, dated 2012).

Experiments:
human orexin-1 receptor = biological target: T1, human orexin-1 receptor (Homo sapiens, UniProt O43613); experiment: FLIPR intracellular calcium assay, orexin receptor antagonistic activity (OX1); format: cell-based; details: CHO cells expressing human orexin-1 receptor; agonist 3 nM orexin-A; normalized to on-plate reference; * geomean n = 5, *2 geomean n = 2
T1 construct: expressed in transfected cells; host or cells: CHO cells (G418 selection)
T1 sequence (O43613 1-425): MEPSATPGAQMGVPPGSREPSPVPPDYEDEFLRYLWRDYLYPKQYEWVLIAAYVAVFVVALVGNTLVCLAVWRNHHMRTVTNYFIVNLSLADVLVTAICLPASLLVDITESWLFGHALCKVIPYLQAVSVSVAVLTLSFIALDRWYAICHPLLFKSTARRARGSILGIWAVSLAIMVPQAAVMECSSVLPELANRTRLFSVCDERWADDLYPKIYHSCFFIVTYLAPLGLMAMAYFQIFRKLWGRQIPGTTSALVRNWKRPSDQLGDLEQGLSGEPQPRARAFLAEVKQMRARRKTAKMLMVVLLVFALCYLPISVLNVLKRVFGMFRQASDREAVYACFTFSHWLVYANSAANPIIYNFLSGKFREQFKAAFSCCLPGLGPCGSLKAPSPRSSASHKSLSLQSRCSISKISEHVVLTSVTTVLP
Method: (§1) The orexin receptor antagonistic activity of the compounds of formula (I) is determined in accordance with the following experimental method.
(§2) Chinese hamster ovary (CHO) cells expressing the human orexin-1 receptor and the human orexin-2 receptor, respectively, are grown in culture medium (Ham F-12 with L-Glutamine) containing 300 μg/ml G418, 100 U/ml penicillin, 100 μg/ml streptomycin and 10% heat inactivated fetal calf serum (FCS). The cells are seeded at 20′000 cells/well into 384-well black clear bottom sterile plates (Greiner). The seeded plates are incubated overnight at 37° C. in 5% CO2.
(§3) Human orexin-A as an agonist is prepared as 1 mM stock solution in MeOH:water (1:1), diluted in HBSS containing 0.1% bovine serum albumin (BSA), NaHCO3: 0.375 g/l and 20 mM HEPES for use in the assay at a final concentration of 3 nM.
(§4) Antagonists are prepared as 10 mM stock solution in DMSO, then diluted in 384-well plates using DMSO followed by a transfer of the dilutions into in HBSS containing 0.1% bovine serum albumin (BSA), NaHCO3: 0.375 g/l and 20 mM HEPES. On the day of the assay, 50 μl of staining buffer (HBSS containing 1% FCS, 20 mM HEPES, NaHCO3: 0.375 g/l, 5 mM probenecid (Sigma) and 3 μM of the fluorescent calcium indicator fluo-4 AM (1 mM stock solution in DMSO, containing 10% pluronic) is added to each well. The 384-well cell-plates are incubated for 50 min at 37° C. in 5% CO2 followed by equilibration at rt for 30-120 min before measurement.
(§5) Within the Fluorescent Imaging Plate Reader (FLIPR Tetra, Molecular Devices), antagonists are added to the plate in a volume of 10 μl/well, incubated for 10 min and finally 10 μl/well of agonist is added. Fluorescence is measured for each well at 1 second intervals, and the height of each fluorescence peak is compared to the height of the fluorescence peak induced by 3 nM orexin-A with vehicle in place of antagonist. For each antagonist, the IC50 value (the concentration of compound needed to inhibit 50% of the agonistic response) is determined and normalized using the obtained IC50 value of a on-plate reference compound. Optimized conditions were achieved by adjustment of pipetting speed and cell splitting regime. The calculated IC50 values of the compounds may fluctuate depending on the daily cellular assay performance. Fluctuations of this kind are known to those skilled in the art.

human orexin-2 receptor = biological target: T2, human orexin-2 receptor (Homo sapiens, UniProt O43614); experiment: FLIPR intracellular calcium assay, orexin receptor antagonistic activity (OX2); format: cell-based; details: CHO cells expressing human orexin-2 receptor; agonist 3 nM orexin-A; normalized to on-plate reference; * geomean n = 5, *2 geomean n = 2
T2 construct: expressed in transfected cells; host or cells: CHO cells (G418 selection)
T2 sequence (O43614 1-444): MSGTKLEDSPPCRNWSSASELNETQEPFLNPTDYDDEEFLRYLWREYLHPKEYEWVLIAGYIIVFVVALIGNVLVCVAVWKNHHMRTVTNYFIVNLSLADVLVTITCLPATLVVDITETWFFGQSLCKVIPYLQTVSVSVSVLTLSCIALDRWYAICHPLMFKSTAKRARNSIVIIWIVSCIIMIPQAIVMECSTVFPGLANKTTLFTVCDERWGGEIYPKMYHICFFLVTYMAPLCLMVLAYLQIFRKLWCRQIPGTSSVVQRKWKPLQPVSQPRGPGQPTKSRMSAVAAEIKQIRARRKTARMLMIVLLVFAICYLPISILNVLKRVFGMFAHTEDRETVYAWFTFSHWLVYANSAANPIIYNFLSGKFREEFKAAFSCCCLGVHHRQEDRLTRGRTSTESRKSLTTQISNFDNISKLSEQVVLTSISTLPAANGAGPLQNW
Method: as §1, §2, §3, §4, §5

SMILES | IC50 (human orexin-1 receptor) | IC50 (human orexin-2 receptor)
COc1cccc(OC)c1C1OCC(=O)N1Cc1ccccc1OC(F)(F)F (stereo not drawn) [Example 33, 2-(2,6-Dimethoxy-phenyl)-3-(2-trifluoromethoxy-benzyl)-oxazolidin-4-one] | > 10000 nM | 225 nM
COc1cccc(OC)c1C1OC(C)(C)C(=O)N1Cc1ccc(Oc2ccccc2)cc1 (stereo not drawn) [Example 50, 2-(2,6-Dimethoxy-phenyl)-5,5-dimethyl-3-(4-phenoxy-benzyl)-oxazolidin-4-one] | 28 nM | 58 nM
CCOc1ccccc1C1OCC(=O)N1Cc1c(F)ccc(F)c1Cl (stereo not drawn) [Example 16, 3-(2-Chloro-3,6-difluoro-benzyl)-2-(2-ethoxy-phenyl)-oxazolidin-4-one] | 590 nM | 3810 nM
CCOc1ccccc1C1OCC(=O)N1Cc1ccc(Cl)cc1F (stereo not drawn) [Example 19, 3-(4-Chloro-2-fluoro-benzyl)-2-(2-ethoxy-phenyl)-oxazolidin-4-one] | 9600 nM | 586 nM
CCOc1ccccc1C1OCC(=O)N1Cc1cc(C(F)(F)F)ccc1Cl (stereo not drawn) [Example 12, 3-(2-Chloro-5-trifluoromethyl-benzyl)-2-(2-ethoxy-phenyl)-oxazolidin-4-one] | 4040 nM | 590 nM
CCOc1ccccc1C1OCC(=O)N1Cc1ccccc1Cl (stereo not drawn) [Example 45, 3-(2-Chloro-benzyl)-2-(2-ethoxy-phenyl)-oxazolidin-4-one] | 1740 nM | 870 nM
CCOc1ccccc1C1OCC(=O)N1Cc1ccc(OC(F)(F)F)c(Cl)c1 (stereo not drawn) [Example 18, 3-(3-Chloro-4-trifluoromethoxy-benzyl)-2-(2-ethoxy-phenyl)-oxazolidin-4-one] | 8790 nM | 26 nM
CCOc1ccccc1C1OCC(=O)N1Cc1cc(Cl)ccc1Cl (stereo not drawn) [Example 46, 3-(2,5-Dichloro-benzyl)-2-(2-ethoxy-phenyl)-oxazolidin-4-one] | 788 nM | 1520 nM
COc1cccc(OC)c1C1O[C@H](C)C(=O)N1Cc1ccc2ccccc2c1 (stereo partly drawn) [Example 53, 2-(2,6-Dimethoxy-phenyl)-(R)-5-methyl-3-naphthalen-2-ylmethyl-oxazolidin-4-one] | 47 nM | 65 nM
CCOc1ccccc1C1OCC(=O)N1Cc1cccc(C(F)(F)F)c1 (stereo not drawn) [Example 5, 2-(2-Ethoxy-phenyl)-3-(3-trifluoromethyl-benzyl)-oxazolidin-4-one] | > 10000 nM | 462 nM
CCOc1ccccc1C1OCC(=O)N1Cc1ccc(Cl)c(C(F)(F)F)c1 (stereo not drawn) [Example 1, 3-(4-Chloro-3-trifluoromethyl-benzyl)-2-(2-ethoxy-phenyl)-oxazolidin-4-one] | 6490 nM | 263 nM
CCOc1ccccc1C1OCC(=O)N1Cc1cc(C(F)(F)F)ccc1F (stereo not drawn) [Example 13, 2-(2-Ethoxy-phenyl)-3-(2-fluoro-5-trifluoromethyl-benzyl)-oxazolidin-4-one] | > 10000 nM | 290 nM
CCOc1ccccc1C1OCC(=O)N1Cc1cc(C(F)(F)F)cc(Cl)c1F (stereo not drawn) [Example 10, 3-(3-Chloro-2-fluoro-5-trifluoromethyl-benzyl)-2-(2-ethoxy-phenyl)-oxazolidin-4-one] | 8410 nM | 693 nM

Second part, the compound after the results:

IC50 (human orexin-1 receptor) | IC50 (human orexin-2 receptor) | SMILES
2940 nM | 508 nM | COc1cccc(OC)c1C1OC(C)(C)C(=O)N1Cc1nc2ccccc2o1 (stereo not drawn) [Example 68, 3-Benzooxazol-2-ylmethyl-2-(2,6-dimethoxy-phenyl)-5,5-dimethyl-oxazolidin-4-one]
204 nM | 37 nM | COc1cccc(Cl)c1C1OC(C)(C)C(=O)N1Cc1ccc(Oc2ccccc2)cc1 (stereo not drawn) [Example 85, 2-(2-Chloro-6-methoxy-phenyl)-5,5-dimethyl-3-(4-phenoxy-benzyl)-oxazolidin-4-one]
5 nM | 151 nM | COc1cccc(OC)c1C1OC(C)(C)C(=O)N1Cc1ccc2ccccc2c1 (stereo not drawn) [Example 57, 2-(2,6-Dimethoxy-phenyl)-5,5-dimethyl-3-naphthalen-2-ylmethyl-oxazolidin-4-one]
413 nM | 236 nM | COc1cccc(OC)c1C1OC(C)(C)C(=O)N1Cc1ccc(Oc2ccccc2)cn1 (stereo not drawn) [Example 90, 2-(2,6-Dimethoxy-phenyl)-5,5-dimethyl-3-(5-phenoxy-pyridin-2-ylmethyl)-oxazolidin-4-one]
920 nM | 88 nM | Cc1cccc(C)c1C1OC(C)(C)C(=O)N1Cc1ccc(OC(F)(F)F)c(Cl)c1 (stereo not drawn) [Example 81, 3-(3-Chloro-4-trifluoromethoxy-benzyl)-2-(2,6-dimethyl-phenyl)-5,5-dimethyl-oxazolidin-4-one]
421 nM | 266 nM | COc1cccc(OC)c1C1O[C@@H](C)C(=O)N1Cc1ccc2ccccc2c1 (stereo partly drawn) [Example 66, 2-(2,6-Dimethoxy-phenyl)-(S)-5-methyl-3-naphthalen-2-ylmethyl-oxazolidin-4-one]
1210 nM | 95 nM | COc1cccc(OC)c1C1O[C@H](C)C(=O)N1Cc1ccc(OC(C)C)cc1 (stereo partly drawn) [Example 74, 2-(2,6-Dimethoxy-phenyl)-3-(4-isopropoxy-benzyl)-(R)-5-methyl-oxazolidin-4-one]
187 nM | 928 nM | COc1cccc(OC)c1C1OC(C)(C)C(=O)N1Cc1ccc(OC(F)F)cc1 (stereo not drawn) [Example 69, 3-(4-Difluoromethoxy-benzyl)-2-(2,6-dimethoxy-phenyl)-5,5-dimethyl-oxazolidin-4-one]
110 nM | 443 nM | COc1cccc(OC)c1C1OC(C)(C)C(=O)N1Cc1ccc(Oc2ccccn2)cc1 (stereo not drawn) [Example 91, 2-(2,6-Dimethoxy-phenyl)-5,5-dimethyl-3-[4-(pyridin-2-yloxy)-benzyl]-oxazolidin-4-one]
2130 nM | 150 nM | COc1cccc(OC)c1C1O[C@@H](C)C(=O)N1Cc1ccc(Oc2ccccc2)cc1 (stereo partly drawn) [Example 59, 2-(2,6-Dimethoxy-phenyl)-(S)-5-methyl-3-(4-phenoxy-benzyl)-oxazolidin-4-one]
10 nM | 120 nM | COc1cccc(OC(C)C)c1C1OC(C)(C)C(=O)N1Cc1ccc(Oc2ccccc2)cc1 (stereo not drawn) [Example 96, 2-(2-Isopropoxy-6-methoxy-phenyl)-5,5-dimethyl-3-(4-phenoxy-benzyl)-oxazolidin-4-one]
133 nM | 69 nM | COc1cccc(C)c1C1OC(C)(C)C(=O)N1Cc1ccc(OC(F)(F)F)c(Cl)c1 (stereo not drawn) [Example 83, 3-(3-Chloro-4-trifluoromethoxy-benzyl)-2-(2-methoxy-6-methyl-phenyl)-5,5-dimethyl-oxazolidin-4-one]
411 nM | 222 nM | COc1cccc(OC)c1C1OC(C)(C)C(=O)N1Cc1nc2ccccc2s1 (stereo not drawn) [Example 64, 3-Benzothiazol-2-ylmethyl-2-(2,6-dimethoxy-phenyl)-5,5-dimethyl-oxazolidin-4-one]
2990 nM | 7260 nM | COc1cccc(OC)c1C1OC(C)(C)C(=O)N1Cc1ccc(Oc2ncccn2)cc1 (stereo not drawn) [Example 95, 2-(2,6-Dimethoxy-phenyl)-5,5-dimethyl-3-[4-(pyrimidin-2-yloxy)-benzyl]-oxazolidin-4-one]
